Data taken from patent publication US8470357B2, “Methods of treatment with Syk inhibitors” (Portola Pharmaceuticals, Inc., priority 2004, dated 2013).

Assays:
[1] = tested on: leukocyte rolling on activated, collagen-adhering platelets; assay: Recruitment of leukocytes to adherent, activated platelets under shear; assay type: cell-based; settings: increasing concentrations; citrated human blood with 2.5 μM Integrilin, type III collagen, 10 minutes, shear 650/sec (FIG. 3)
Description: Briefly, human blood, anticoagulated with citrate in the presence of 2.5 μM Integrilin, was exposed for 10 minutes to type III collagen at a shear rate of 650/sec.

[2] = tested on: leukocyte adhesion to IL-1β-activated human umbilical endothelial cells; assay: Recruitment of leukocytes to activated endothelial cells under shear; assay type: cell-based; settings: 25 or 50 μM; citrated human blood, IL-1β-activated endothelial cells, shear 650/sec (FIG. 4)
Excerpt: Briefly, cultured monolayers of human umbilical endothelial cells were activated by exposure to IL-1β for 24 hrs. Human blood, anticoagulated with citrate, was exposed to the activated endothelial cells at a shear rate of 650/sec for the time indicated.

[3] = tested on: platelet thrombus formation on type III collagen; assay: Platelet thrombus formation on type III collagen under shear; assay type: cell-based, human
Description: Briefly, unanticoagulated human blood was exposed to type III collagen for 4 minutes at a rate of shear (e.g., about 850/sec.) equivalent to that encountered in coronary arteries.

Compound: CC(=O)N(C)c1ccc(Nc2nc(NC3CCC3)c3[nH]cnc3n2)cc1.Cl [NVP-QAB205]
- inhibition of leukocyte rolling [1]: caused inhibition of leukocyte rolling
- inhibition of leukocyte adhesion to activated endothelial cells [2]: marked inhibition of leukocyte adhesion
- platelet adhesion ([3]; at 5, 10, and 25 μM (see FIG. 2)): did not completely block platelet adhesion
- inhibition of thrombus formation ([3]; increasing concentrations, unanticoagulated human blood, type III collagen, 4 minutes, shear about 850/sec (FIG. 2)): caused inhibition of thrombus formation
